Columns and labels:
[1] = target: T1, androgen receptor (AdEasy+rAR, L929 cells) (Rattus norvegicus, UniProt P15207); assay: L929 Androgen Receptor Functional Assay, Adenovirus Transduction; type: cell-based; conditions: agonist testing, 3000 nM
T1 construct: expressed in transfected cells; host or cells: L929 cells transduced with adenovirus AdEasy+rAR
T1 sequence (P15207 1-902): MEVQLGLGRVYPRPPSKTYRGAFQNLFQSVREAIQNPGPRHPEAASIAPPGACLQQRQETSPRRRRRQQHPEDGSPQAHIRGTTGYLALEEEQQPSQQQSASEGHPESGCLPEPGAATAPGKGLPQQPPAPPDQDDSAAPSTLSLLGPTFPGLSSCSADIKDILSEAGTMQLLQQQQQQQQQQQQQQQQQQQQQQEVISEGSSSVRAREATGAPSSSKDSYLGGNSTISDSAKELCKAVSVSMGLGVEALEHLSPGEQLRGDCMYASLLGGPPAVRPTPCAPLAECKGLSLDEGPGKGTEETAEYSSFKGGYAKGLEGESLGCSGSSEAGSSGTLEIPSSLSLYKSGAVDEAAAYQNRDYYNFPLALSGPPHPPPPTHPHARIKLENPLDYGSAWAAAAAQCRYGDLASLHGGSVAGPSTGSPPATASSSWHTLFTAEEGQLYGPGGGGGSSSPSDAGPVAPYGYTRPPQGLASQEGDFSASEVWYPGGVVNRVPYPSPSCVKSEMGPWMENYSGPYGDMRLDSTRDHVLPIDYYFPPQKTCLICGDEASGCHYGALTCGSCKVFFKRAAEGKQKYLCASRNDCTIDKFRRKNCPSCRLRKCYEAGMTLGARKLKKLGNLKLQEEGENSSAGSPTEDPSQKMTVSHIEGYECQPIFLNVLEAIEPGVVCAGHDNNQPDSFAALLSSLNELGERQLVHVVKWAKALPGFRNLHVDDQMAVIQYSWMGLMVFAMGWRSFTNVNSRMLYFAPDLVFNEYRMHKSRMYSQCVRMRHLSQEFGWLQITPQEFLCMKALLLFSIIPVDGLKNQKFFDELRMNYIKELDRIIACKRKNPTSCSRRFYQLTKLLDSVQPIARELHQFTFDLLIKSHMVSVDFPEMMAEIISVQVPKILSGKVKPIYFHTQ
Protocol: L929 cells were plated in 96-well plates at 20,000 cells per well, in DMEM/F12 (GIBCO) containing 10% (v/v) charcoal-treated fetal bovine serum (Hyclone) and lacking phenol red. The plates were then incubated overnight at 37° C. in 5% (v/v) humidified CO2.
Test compound dilutions were prepared in 100% (v/v) DMSO, if necessary. Each dilution was made to 1250× the final desired assay concentration.
First, 2 mL of DMEM/F12 lacking phenol red was pipetted into the wells of a 2-mL 96-well assay block. Next, 4 μL of the 1250× test compound dilutions were pipetted into each well of the assay block. The mixtures within the well were then carefully mixed by pipette.
In a 15 mL or 50 mL sterile centrifuge tube, a 2.5 nM (2.5×) dilution of R1881 (methyl-trienolone) in DMEM/F12 lacking phenol red was prepared.
In a second 15 mL or 50 mL centrifuge tube a solution containing an equal volume of DMEM to the first and an equal volume of 100% (v/v) DMSO to the volume of R1881 used in the first tube was prepared.
In a 15 mL or 50 mL sterile centrifuge tube, a dilution in DMEM/F12 of the adenovirus AdEasy+rAR at an moi of 1:500 per well was prepared.
The medium was removed from the 96-well plates by inversion and dried, inverted, very briefly. As soon as possible after medium removal, 40 μL of the diluted unlabeled test compound was added to each well, in duplicate. To each well designated for antagonist testing was added 40 μL of the 2.5 nM R1881 dilution to the wells for antagonist testing. To each well designated for agonist testing was added 40 μL of the DMSO dilution. Then 20 μL of the diluted adenovirus were added to all wells. The plates were incubated for 48 hours at 37° C. in 5% (v/v) humidified CO2.
To each well was added 100 μL of Steady-Glo luciferase assay substrate (Promega) and the plates were placed on a rotary shaker for 1 min. The plates were then incubated at room temperature in the dark for one hour. The contents of each well were then transferred to a white microtiter plate (Packard) and read on a Luminoskan Ascent (Thermo Lab Systems).
L929 AR percent activity was determined by testing dilutions of the test compound using a concentration of 3000 nM unless otherwise noted. L929 percent inhibition was determined by testing dilutions of the test compound using a concentration of 3000 nM. […] Luciferase activity per well were measured and EC50s and IC50s determined by linear regression.

[2] = system: testosterone-enhanced ventral prostate and seminal vesicle weights; assay: Ventral Prostate and Seminal Vesicle Weight in vivo Assay; set-up: species or system rat; conditions: immature castrated male Sprague Dawley rats, once daily for five days, usually orally 40 mg/kg, with testosterone propionate 2 mg/kg s.c. Further: key: 'active' if the non weight adjusted prostate weight was ≦40 mg or the % Inhibition prostate weight, body weight adjusted was ≧40% @ 2 mg/day dosage; ID50's, if determined, of ≦15 mg/day also indicated an 'active' compound; listed herein as 'inactive' as they did not meet the specified criteria defined above.
In short: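 Immature castrated male Sprague Dawley rats (~50 g) were dosed once daily for five days with compound, usually orally at 40 mg/kg in cyclodextrin or methylcellulose vehicle. Testosterone propionate was co-dosed subcutaneously at 2 mg/kg. On day six, ventral prostate and seminal vesicle wet weights were measured; activity was judged on prostate weight or body-weight-adjusted % inhibition.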

[3] = target: T2, androgen receptor (rat ventral prostate cytosol) (Rattus norvegicus, UniProt P15207); assay: Androgen Receptor Binding Using Rat Ventral Prostate Cytosol; conditions: for IC50: read-out: IC50 (nM), Androgen Receptor Binding (Rat Cytosol); for inhibition at 1 µM: read-out: % Inhibition, Androgen Receptor Binding (Rat Cytosol)
T2 construct: from tissue; host or cells: ventral prostate cytosol of castrated male Sprague Dawley or Wistar rats
T2 sequence (P15207 1-902): T1 sequence (P15207 1-902)
Protocol: The assay was run on a 96 well plate with each well filled with a total reaction volume 150 μL, of a solution containing 5 pmol androgen receptor LBD (Panvera) or 30 μL of freshly prepared rat cytosol, 0.5 nM [^3H] […] (TED buffer contains 10 mM Tris.HCl pH 7.4, 1 mM sodium molybdate, 1.5 mM EDTA, 1 mM DTT and 10% (v/v) glycerol.)
On day one, the solution containing receptor, tracer and TED buffer was distributed into a 96 well plate. Diluted test compound or control vehicle was then added to individual wells and the plate incubated at 4° C. overnight.
On day two, to each well was then added 20 μL human γ-globulin (ICN 823102), prepared at 25 mg/ml in TE pH 8.0, and 55 μL 40% polyethylene glycol 8000 (J T Baker U222-08), prepared in TE pH 8.0. The plate was incubated at 4° C. for 60 minutes. During incubation, the harvester was rinsed with 10% PEG 8000, prepared in TE pH 8.0, and a GF/C Unifilter-96 was pre-wet with 10% PEG. The binding reaction was filtered, the retentate was washed three times with 10% PEG and dried under vacuum for a couple of minutes, then dried at 50° C. for 5 min and the plate was bottom sealed. Next, 25 μL of Microscint-20 (Packard) was added to the filter wells and the plate was top sealed. The plate wells were then counted on a TopCount (Packard).
Rat Prostate Cytosol Preparation:
Male Sprague Dawley or Wistar rats (Charles River, 200-300 g) were used for each preparation. The day before preparing the cytosol, the rats were castrated using standard surgical procedures.
The rats were euthanized by carbon dioxide asphyxiation. The rat prostates were quickly removed and placed on ice in pre-chilled, pre-weighed 50 mL plastic tubes. No more than five prostates were placed into one tube. The tubes were then weighed and the prostate tissue wet weights calculated.
To the chilled prostate tissue was then added […] of chilled homogenization buffer. The homogenization buffer was freshly prepared by mixing 10 mM Tris.HCl, pH 7.4, 1 mM sodium molybdate, 1.5 mM EDTA, 1 mM dithiothreitol, 10% (v/v) glycerol and 1% protease inhibitor cocktail (Sigma P 8340).
The prostate tissue was homogenized in a cold room using a pre-chilled Polytron PT3000 homogenizer (Brinkmann). Homogenization was performed at a speed setting of 20, three times for 10 sec bursts. The tubes containing the prostate tissue was kept on ice while homogenizing. The homogenate was allowed to rest on ice for 20 sec between bursts.
The homogenate was then placed into pre-chilled 3 mL polycarbonate ultracentrifuge tubes and centrifuged in the TLA-100 rotor of a TL-100 ultracentrifuge for 12 min at 100,000 rpm at 4° C. The resulting supernatant was stored in 1 mL aliquots at −80° C. until needed.
Binding to the androgen receptor was determined according to the protocol described in Example 86 using the above prepared rat cytosol.
% Inhibition was determined by testing dilutions of the test compound (usually duplicates of 10 μM) in the binding assay. Counts per well were measured and percents of inhibition determined. […] Counts per well were measured and IC50s determined by linear regression.

CN(C)c1ccc(S(=O)(=O)CC(C)(O)c2cc3cc(Cl)c(C(F)(F)F)cc3[nH]2)cc1 (racemic) [Compound 126]
% Activity, L929 androgen receptor functional assay [1]: −5%
active / inactive: inhibition of testosterone-enhanced prostate weight [2]: inactive
% Inhibition, Androgen Receptor Binding (Rat Cytosol) ([3]; Concentration 3000 nM): −30%

CC(O)(CS(=O)(=O)Cc1ccccc1)c1cc2cc([N+](=O)[O-])c(C(F)(F)F)cc2[nH]1 (racemic) [Compound 162]
% Activity, L929 androgen receptor functional assay [1]: 2%
active / inactive: inhibition of testosterone-enhanced prostate weight [2]: inactive
% Inhibition, Androgen Receptor Binding (Rat Cytosol) ([3]; Concentration 3000 nM): 0.69%

CC(O)(Sc1ccc(N)cc1)c1cc2cc(Cl)c(C(F)(F)F)cc2[nH]1 (racemic) [Compound 265]
% Activity, L929 androgen receptor functional assay [1]: −1%
% Inhibition, Androgen Receptor Binding (Rat Cytosol) ([3]; Concentration 3000 nM): 93.5%

CC(O)(Sc1ccc(N)cc1)c1cc2cc([N+](=O)[O-])c(C(F)(F)F)cc2[nH]1 (racemic) [Compound 266]
% Activity, L929 androgen receptor functional assay [1]: −4%
active / inactive: inhibition of testosterone-enhanced prostate weight [2]: inactive
% Inhibition, Androgen Receptor Binding (Rat Cytosol) ([3]; Concentration 3000 nM): 12.4%

CC(C)SC(C)(CO)c1cc2cc([N+](=O)[O-])c(C(F)(F)F)cc2[nH]1 (racemic) [Compound 268]
% Activity, L929 androgen receptor functional assay [1]: 9%
active / inactive: inhibition of testosterone-enhanced prostate weight [2]: inactive
% Inhibition, Androgen Receptor Binding (Rat Cytosol) ([3]; Concentration 3000 nM): −3.3%

OC1(c2cc3cc(Cl)c(C(F)(F)F)cc3[nH]2)CCN(Cc2ccc(Cl)cc2)CC1 [Compound 31]
% Inhibition, Androgen Receptor Binding (Rat Cytosol) ([3]; Concentration 1000 nM): 20%
IC50 [3]: 4050 nM

CC(C)(C)c1ccc(CN2CCC(O)(c3cc4cc(Cl)c(C(F)(F)F)cc4[nH]3)CC2)cc1 [Compound 32]
% Inhibition, Androgen Receptor Binding (Rat Cytosol) ([3]; Concentration 1000 nM): 34%
IC50 [3]: 43000 nM

OC1(c2cc3cc(Cl)c(C(F)(F)F)cc3[nH]2)CCN(Cc2ccc(C(F)(F)F)cc2)CC1 [Compound 33]
% Inhibition, Androgen Receptor Binding (Rat Cytosol) ([3]; Concentration 1000 nM): 11%
IC50 [3]: 29000 nM

CS(=O)(=O)c1ccc(CN2CCC(O)(c3cc4cc(Cl)c(C(F)(F)F)cc4[nH]3)CC2)cc1 [Compound 34]
% Inhibition, Androgen Receptor Binding (Rat Cytosol) ([3]; Concentration 1000 nM): 18%
IC50 [3]: 5700 nM

COc1ccc(CN2CCC(O)(c3cc4cc(Cl)c(C(F)(F)F)cc4[nH]3)CC2)cc1 [Compound 35]
% Inhibition, Androgen Receptor Binding (Rat Cytosol) ([3]; Concentration 1000 nM): −19%
IC50 [3]: 4200 nM

OC1(c2cc3cc(Cl)c(C(F)(F)F)cc3[nH]2)CCN(Cc2ccc(Cl)c(Cl)c2)CC1 [Compound 36]
% Inhibition, Androgen Receptor Binding (Rat Cytosol) ([3]; Concentration 1000 nM): −34%
IC50 [3]: > 100000 nM

O=[N+]([O-])c1cc2cc(C3(O)CCN(Cc4ccc(F)cc4)CC3)[nH]c2cc1C(F)(F)F [Compound 37]
inhibition at 1 µM ([3]; Concentration 1000 nM): 25%
IC50 [3]: 3600 nM

COc1cccc(CN2CCC(O)(c3cc4cc([N+](=O)[O-])c(C(F)(F)F)cc4[nH]3)CC2)c1 [Compound 38]
% Inhibition, Androgen Receptor Binding (Rat Cytosol) ([3]; Concentration 1000 nM, 1 µM): 16%
IC50 [3]: 8800 nM

COc1cccc(CN2CCC(O)(c3cc4cc([N+](=O)[O-])c(C(F)(F)F)cc4[nH]3)CC2)c1 [Compound 39]
% Inhibition, Androgen Receptor Binding (Rat Cytosol) ([3]; Concentration 1000 nM, 1 µM): 6%
IC50 [3]: > 6100 nM

O=[N+]([O-])c1cc2cc(C3(O)CCN(Cc4ccc(Cl)cc4)CC3)[nH]c2cc1C(F)(F)F [Compound 40]
% Inhibition, Androgen Receptor Binding (Rat Cytosol) ([3]; Concentration 1000 nM, 1 µM): −2.5%
IC50 [3]: 3800 nM

O=[N+]([O-])c1cc2cc(C3(O)CCN(Cc4ccc(Cl)cc4)CC3)[nH]c2cc1C(F)(F)F [Compound 41]
% Inhibition, Androgen Receptor Binding (Rat Cytosol) ([3]; Concentration 1000 nM, 1 µM): 20%
IC50 [3]: 2300 nM

Cc1ccc(CN2CCC(O)(c3cc4cc([N+](=O)[O-])c(C(F)(F)F)cc4[nH]3)CC2)cc1 [Compound 42]
inhibition at 1 µM ([3]; Concentration 1000 nM): 23%
IC50 [3]: 7100 nM

O=[N+]([O-])c1cc2cc(C3(O)CCN(Cc4ccc(Cl)c(Cl)c4)CC3)[nH]c2cc1C(F)(F)F [Compound 43]
% Inhibition, Androgen Receptor Binding (Rat Cytosol) ([3]; Concentration 1000 nM): 5.8%
IC50 [3]: 9100 nM

CC(O)(CS(=O)(=O)c1ccc(F)cc1)c1cc2cc(C#N)c(C(F)(F)F)cc2[nH]1 (stereo not shown) [Compound 110]
inhibition at 1 µM ([3]; Concentration 1000 nM): 58.5%

CC(O)(C[S+]([O-])c1ccccc1)c1cc2cc(Cl)c(C(F)(F)F)cc2[nH]1 (stereo not shown) [Compound 115]
% Inhibition, Androgen Receptor Binding (Rat Cytosol) ([3]; Concentration 1000 nM, 1 µM): 54.5%
IC50 [3]: 1300 nM

Source: patent publication US7282507B2, “Indole derivatives as selective androgen receptor modulators (SARMS)” (Janssen Pharmaceutica N.V., priority 2004, dated 2007)
